Like-named read-outs stand apart in the source and are kept apart here.
Molecular target: T1, acetylcholinesterase (AChE) from electric eels (type V-S) (Electrophorus electricus, UniProt O42275)
T1 construct: purchased Sigma-Aldrich (St. Louis, MO, USA) type V-S (catalogue number not given)
Test: Acetylcholinesterase (AChE) inhibitory assay, modified Ellman's colorimetric method, 96-well microplate
Assay type: biochemical
Conditions: for AChE inhibitory activity in words: microplate assay

[1] = mean ± standard deviation of two independent experiments, Tris-HCl pH 8, absorbance at 405 nm, read-out: Acetylcholinesterase inhibitory activity IC50

T1 sequence (O42275 24-633): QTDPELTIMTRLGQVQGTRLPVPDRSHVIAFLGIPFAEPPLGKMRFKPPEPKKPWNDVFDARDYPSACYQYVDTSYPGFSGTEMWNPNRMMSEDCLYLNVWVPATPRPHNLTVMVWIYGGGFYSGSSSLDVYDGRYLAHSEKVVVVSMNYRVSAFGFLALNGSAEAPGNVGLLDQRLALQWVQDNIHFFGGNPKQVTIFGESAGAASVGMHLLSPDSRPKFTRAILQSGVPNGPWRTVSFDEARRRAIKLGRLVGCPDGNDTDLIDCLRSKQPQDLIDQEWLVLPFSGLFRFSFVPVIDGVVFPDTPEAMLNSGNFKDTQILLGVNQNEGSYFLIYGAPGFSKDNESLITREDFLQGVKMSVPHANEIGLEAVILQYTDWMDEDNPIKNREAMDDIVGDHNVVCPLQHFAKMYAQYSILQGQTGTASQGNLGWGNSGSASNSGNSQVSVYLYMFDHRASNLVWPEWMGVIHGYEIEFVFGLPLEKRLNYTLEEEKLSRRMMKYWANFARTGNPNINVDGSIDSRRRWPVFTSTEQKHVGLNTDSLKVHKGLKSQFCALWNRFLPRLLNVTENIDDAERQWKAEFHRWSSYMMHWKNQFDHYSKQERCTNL

SMILES	IC50 [1] [µM]	AChE inhibitory activity in words	IC50 [µM]
O=CN1CCc2cc3c(c4c2C1Cc1ccccc1-4)OCO3 (stereo not shown) [Compound 5, N-formylannonaine]	415.3 ± 2.7	–	–
COc1cc(/C=C/C(=O)NCCc2ccc(O)cc2)ccc1O [Compound 7, N-trans-feruloyltyramine]	–	very weak or no inhibitory activity	–
COc1cc2c(cc1O)-c1cc3ccc(OC)c(OC)c3c[n+]1CC2 [Compound 3, columbamine]	–	most active compound	48.1 ± 1.3
COc1ccc2c(c1O)-c1c(O)c(OC)cc3c1[C@H](C2)[N+](C)(C)CC3 [Compound 4, magnoflorine]	–	very weak or no inhibitory activity	–
COc1cc2c3c(c1OC)-c1ccccc1CC3N(C=O)CC2 (stereo not shown) [Compound 6, N-formylnornuciferine]	564.6 ± 2.1	very weak or no inhibitory activity	–
